The source made the active and inactive calls. The rule behind the calls is not given here.
tested on: SK-BR-3; assay: Disruption of Aha1/Hsp90 protein-protein interaction in human SK-BR-3 cells lysate at 10 uM incubated for 24 hrs by co-immunoprecipitation assay; type: subcellular

SMILES	Activity
COc1ccc(C(=O)Nc2ccc(C(F)(F)F)cc2)cc1-c1cccc(N(C)C)c1	Active
COc1cccc(-c2cc(-c3nnnn3-c3ccc(C(F)(F)F)cc3)ccc2OC)c1	Active
COc1cccc(-c2cc(C(=O)Nc3ccc(C(F)(F)F)cc3)ccc2OC)c1	Active

species on record: Homo sapiens; assay: Disruption of recombinant human Aha1/Hsp90 alpha protein-protein interaction expressed in Escherichia coli […] assessed as inhibition of recombinant human P301L tau aggregation incubated for 30 mins by ThT fluorescence assay

SMILES	Activity
COc1ccc(C(=O)Nc2ccc(C(F)(F)F)cc2)cc1-c1cccc(N(C)C)c1	Active
COc1cccc(-c2cc(-c3nnnn3-c3ccc(C(F)(F)F)cc3)ccc2OC)c1	Active

tested on: SH-SY5Y; assay: Disruption of Aha1/Hsp90 alpha protein-protein interaction in human SH-SY5Y cells lysate at 10 uM incubated for 24 hrs by co-immunoprecipitation assay; type: subcellular

SMILES	Activity
COc1ccc(C(=O)Nc2ccc(C(F)(F)F)cc2)cc1-c1cccc(N(C)C)c1	Active
COc1cccc(-c2cc(-c3nnnn3-c3ccc(C(F)(F)F)cc3)ccc2OC)c1	Active
COc1cccc(-c2cc(C(=O)Nc3ccc(C(F)(F)F)cc3)ccc2OC)c1	Active

tested on: not listed separately; assay: Disruption of recombinant GST-tagged human Aha1/His6-tagged full length human Hsp90alpha protein-protein interaction expressed in Escherichia coli incubated for 4 hrs by AlphaLisa assay

SMILES	IC50 [µM]
COc1ccc(C(=O)Nc2ccc(C(F)(F)F)cc2)cc1-c1ccc(Cl)cc1	> 10
COc1ccc(C(=O)Nc2ccc(C(F)(F)F)cc2)cc1-c1ccccc1O	> 10
COC(=O)c1ccc(NC(=O)c2ccc(OC)c(-c3cccc(OC)c3)c2)cc1	> 10
COc1cccc(-c2cc(C(=O)Nc3cccc(Cl)c3Cl)ccc2OC)c1	> 10
COc1ccc(NC(=O)c2ccc(OC)c(-c3cccc(OC)c3)c2)cc1	> 10
COc1ccc(C(=O)Nc2ccc(C(F)(F)F)cc2)c(-c2ccccc2)c1	> 10
COc1cccc(-c2cc(C(=O)Nc3ccccc3)ccc2OC)c1	> 10
COc1ccc(C(=O)Nc2ccc(C(F)(F)F)cc2)cc1-c1cccc(N(C)C)c1	3.36
COc1cccc(-c2cc(C(=O)Nc3ccc(OC)cc3OC)ccc2OC)c1	9.53
COc1cccc(-c2cc(C(=O)Nc3ccc(Cl)cc3)ccc2OC)c1	6.03
COC(=O)c1cccc(NC(=O)c2ccc(OC)c(-c3cccc(OC)c3)c2)c1	> 10
COc1cccc(-c2cc(-c3nnnn3-c3ccc(C(F)(F)F)cc3)ccc2OC)c1	3.32
COc1cccc(-c2cc(C(=O)Nc3ccc([N+](=O)[O-])cc3)ccc2OC)c1	4.04
COc1ccc(C(=O)Nc2ccc(C(F)(F)F)cc2)cc1-c1c(OC)cccc1OC	9.05
COc1ccc(C(=O)Nc2ccc(C(F)(F)F)cc2)cc1-c1cccc(CO)c1	> 10
COc1cccc(-c2cc(C(=O)Nc3ccccc3Cl)ccc2OC)c1	> 10
COc1ccc(C(=O)Nc2ccc(C(F)(F)F)cc2)cc1-c1cccc(C(F)(F)F)c1	> 10
COc1ccc(-c2cc(OC)ccc2C(=O)Nc2ccc(C(F)(F)F)cc2)cc1	> 10
COc1cccc(-c2cc(C(=O)Nc3ccc(Cl)cc3Cl)ccc2OC)c1	> 10
COc1ccc(C(=O)Nc2ccc(C(F)(F)F)cc2)cc1-c1cccc(Cl)c1	> 10
COc1ccc(C(=O)Nc2ccc(C(F)(F)F)cc2)cc1-c1cccc(F)c1	> 10
COc1ccc(-c2cc(C(=O)Nc3ccc(C(F)(F)F)cc3)ccc2OC)cc1	> 10
COc1cccc(-c2cc(C(=O)Nc3cccc([N+](=O)[O-])c3)ccc2OC)c1	> 10

SMILES	IC50 [µM]
COc1ccc(C(=O)Nc2ccc(C(F)(F)F)cc2)cc1-c1ccc(O)cc1	6.39
COc1ccc(C(=O)Nc2ccc(C(F)(F)F)cc2)c(-c2ccc(Cl)c(Cl)c2)c1	> 10
COc1cccc(-c2cc(C(=O)Nc3ccc(F)cc3)ccc2OC)c1	6.32
COc1cccc(-c2cc(C(=O)Nc3cccc(Cl)c3)ccc2OC)c1	> 10
COc1ccc(C(=O)Nc2ccc(C(F)(F)F)cc2)cc1-c1ccc(C(F)(F)F)cc1	> 10
COc1ccc(C(=O)Nc2ccc(C(F)(F)F)cc2)cc1-c1ccc(Cl)c(C(F)(F)F)c1	> 10
COc1ccc(C(=O)Nc2ccc(C(F)(F)F)cc2)cc1-c1cccc(N)c1	7.23
COc1ccc(C(=O)Nc2ccc(C(F)(F)F)cc2)c(-c2ccc(O)cc2)c1	> 10
COc1ccc(C(=O)Nc2ccc(C(F)(F)F)cc2)c(-c2ccccc2OC)c1	> 10
COc1ccc(C(=O)Nc2ccc(C(F)(F)F)cc2)c(-c2cccc(O)c2)c1	> 10
COc1ccccc1-c1cc(C(=O)Nc2ccc(C(F)(F)F)cc2)ccc1OC	9.65
COc1cccc(-c2cc(C(=O)Nc3ccc(C#N)cc3)ccc2OC)c1	8.57
COc1ccc(C(=O)Nc2ccc(C(F)(F)F)cc2)c(-c2ccc(Cl)c(C(F)(F)F)c2)c1	> 10
COc1ccc(C(=O)Nc2ccc(C(F)(F)F)cc2)cc1-c1ccccc1	> 10
COc1ccc(C(=O)Nc2ccc(C(F)(F)F)cc2)cc1-c1cccc(OC)c1OC	> 10
COc1ccc(C(=O)Nc2ccc(C(F)(F)F)cc2)cc1-c1cccc(O)c1	> 10
COc1cc(NC(=O)c2ccc(OC)c(-c3cccc(OC)c3)c2)cc(OC)c1	> 10
COc1cccc(-c2cc(C(=O)Nc3ccc(C(F)(F)F)cc3)ccc2OC)c1	4.83
COc1ccc(C(=O)Nc2ccc(C(F)(F)F)cc2)cc1-c1ccc(Cl)c(Cl)c1	> 10
COc1cccc(-c2cc(C(=O)Nc3ccc(O)cc3)ccc2OC)c1	> 10
COc1ccc(C(=O)Nc2ccc(C(F)(F)F)cc2)c(-c2ccc(Cl)cc2)c1	> 10
COc1cccc(-c2cc(OC)ccc2C(=O)Nc2ccc(C(F)(F)F)cc2)c1	> 10

— ChEMBL document CHEMBL5131532, “Synthesis and Evaluation of Small Molecule Disruptors of the Aha1/Hsp90 Complex for the Reduction of Tau Aggregation” (ACS Med Chem Lett, 2022)
